Measurements reported in US20050019355A1, “Skin antiseptic and disinfectant” (priority 2003, published 2005).

Tested on: E. coli (ATCC 25922)
Test: Lower effective concentration of ethyl lactate, modification of AOAC Method 956.17
Format: cell-based
Conditions: 15% solution of ethyl lactate, 10 minutes exposure of E. coli
Description: Using a modification of AOAC Method 956.17, the lower effective concentration for ethyl lactate was tested against E. coli (ATCC 25922) at three reaction times at varying concentrations of ethyl lactate. […] [table]

## CCOC(=O)C(C)O (stereo not shown) [ethyl lactate]
  Bacterial growth after exposure: eliminated bacterial growth
